# Experimental data reported in ChEMBL document CHEMBL2034863, “Application of MM-GB/SA and WaterMap to SRC Kinase Inhibitor Potency Prediction” (ACS Med Chem Lett, 2012).
# Biological target: Proto-oncogene tyrosine-protein kinase Src (Homo sapiens, UniProt P12931)
# Sequence (P12931 2-536 limits assumed): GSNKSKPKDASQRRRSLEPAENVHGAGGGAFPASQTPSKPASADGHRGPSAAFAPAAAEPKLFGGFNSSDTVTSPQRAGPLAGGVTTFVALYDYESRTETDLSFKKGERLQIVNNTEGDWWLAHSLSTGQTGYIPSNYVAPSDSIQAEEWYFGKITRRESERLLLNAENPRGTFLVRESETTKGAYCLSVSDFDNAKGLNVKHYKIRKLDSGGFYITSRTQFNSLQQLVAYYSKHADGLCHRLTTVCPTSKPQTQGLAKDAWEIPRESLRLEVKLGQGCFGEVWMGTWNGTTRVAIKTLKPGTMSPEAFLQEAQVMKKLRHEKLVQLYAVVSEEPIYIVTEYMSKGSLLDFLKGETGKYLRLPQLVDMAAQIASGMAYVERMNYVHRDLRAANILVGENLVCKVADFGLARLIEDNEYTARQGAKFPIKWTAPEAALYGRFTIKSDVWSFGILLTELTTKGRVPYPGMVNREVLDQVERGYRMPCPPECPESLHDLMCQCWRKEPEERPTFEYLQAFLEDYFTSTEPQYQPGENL
row,IC50 [µM],SMILES
1,0.0039,CCCP(=O)(CCC)c1ccc(Nc2nc(C(C)C)nc3c2ncn3CC)cc1
2,0.0088,CCCCP(=O)(CCCC)c1ccc(Nc2nc(C(C)C)nc3c2ncn3CC)cc1
3,0.0251,CCn1cnc2c(Nc3ccc(P(C)(C)=O)cc3)nc(C(C)C)nc21
4,0.0412,CCn1cnc2c(Nc3ccc(P(C)(C)=O)cc3)nc(NC3CCOCC3)nc21
5,0.0431,Cc1cccc(C)c1/C=C/n1cnc2c(Nc3ccc(P(C)(C)=O)cc3)nc(-c3ccccn3)nc21
6,0.155,C=Cn1cnc2c(Nc3ccc(P(C)(C)=O)cc3)nc(N3CCC(CO)CC3)nc21
7,0.188,C=Cn1cnc2c(Nc3ccc(P(C)(C)=O)cc3)nc(OC3CCOC3)nc21 (centres undefined)
8,0.385,CCn1cnc2c(Nc3ccc(C(C)C)cc3)nc(C(C)C)nc21
9,1,C=Cn1cnc2c(Nc3ccc(P(C)(C)=O)cc3)ncnc21
